# Laboratory results from US20250145665A1, “MACROCYCLIC PEPTIDES USEFUL AS MODULATORS OF TNF ALPHA” (Bristol-Myers Squibb Company, priority 2023, published 2025).
# Starred links: 1 amine or outer side, 2 acyl side, 3 side chain; linkers in the order of their positions; H or OH if unused. Positions of bridges follow the written chain, without caps; N, C: chain ends. Non-standard residues stand in square brackets, D forms with d. Residues, ends and D or L forms follow the SMILES beside them. *: point of attachment. Bip(4'-NH) = O=C([C@H](Cc1ccc(-c2ccc(N[*:3])cc2)cc1)N[*:1])[*:2]; X45 = CS(=O)(=O)Nc1ccc(CNC(=N)NCCC[C@@H](N[*:1])C(=O)[*:2])cc1; Bip(4'-CONHMe) = CNC(=O)c1ccc(-c2ccc(C[C@H](N)C(=O)O)cc2)cc1; dArg(ω-Bn(3-CH2OH)) = N=C(NCCC[C@@H](N)C(=O)O)NCc1cccc(CO)c1; Indazole3carbonyl(1-CH2COOH) = O=C(O)Cn1nc(C(=O)*)c2ccccc21; X30 = N#Cc1ccc(CCNC(=N)NCCC[C@@H](N[*:1])C(=O)[*:2])cc1; X8 = N=C(NCCC[C@@H](N[*:1])C(=O)[*:2])NCCc1ccc(CN)cc1; Ala(morpholin-4-yl) = N[C@@H](CN1CCOCC1)C(=O)O; Bip = N[C@@H](Cc1ccc(-c2ccccc2)cc1)C(=O)O; Sar = CNCC(=O)O
# Target: TNFα (Homo sapiens, UniProt P01375)
# Test: TNF-Induced HEK-Blue Assay
# Type: cell-based
# Chain of TNFα (P01375 77-233 limits assumed): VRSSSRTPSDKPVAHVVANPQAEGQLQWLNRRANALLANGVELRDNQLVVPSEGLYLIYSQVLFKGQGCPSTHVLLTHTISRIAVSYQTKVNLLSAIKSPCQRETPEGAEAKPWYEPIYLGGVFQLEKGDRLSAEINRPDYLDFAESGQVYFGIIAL
row,Compound,IC50 [µM]
1,CC(C)C[C@@H]1NC(=O)[C@H](CCCNC(=N)N)NC(=O)[C@H](C(C)C)NC(=O)[C@@H]2CCCN2C(=O)[C@H](C(C)C)NC(=O)[C@@H](CCCNC(=N)NCc2cccc(CO)c2)NC(=O)[C@H](CC(=O)O)NC(=O)[C@@H]2CCCN2C(=O)CN(C)C(=O)[C@H](Cc2ccc(-c3ccc(NC(=O)c4nn(CC(=O)O)c5ccccc45)cc3)cc2)NC(=O)[C@H](Cc2ccc(-c3ccccc3)cc2)NC(=O)[C@H](CN2CCOCC2)NC(=O)CSC[C@@H](C(=O)NCC(N)=O)NC1=O [Example 425] ({CH2CO}-[Ala(morpholin-4-yl)][Bip][Bip(4'-NH)](Indazole3carbonyl(1-CH2COOH))[Sar]PD[dArg(ω-Bn(3-CH2OH))]VPVRLCG-NH2; thioether N-13),< 0.05
2,CNC(=O)c1ccc(-c2ccc(C[C@@H]3NC(=O)[C@H](CN4CCOCC4)NC(=O)CSC[C@@H](C(=O)NCC(N)=O)NC(=O)[C@H](CC(C)C)NC(=O)[C@H](CCCNC(=N)N)NC(=O)[C@H](C(C)C)NC(=O)[C@@H]4CCCN4C(=O)[C@H](C(C)C)NC(=O)[C@@H](CCCNC(=N)NCc4cccc(CO)c4)NC(=O)[C@H](CC(=O)O)NC(=O)[C@@H]4CCCN4C(=O)CN(C)C(=O)[C@H](Cc4ccc(-c5ccc(NC(=O)c6nn(CC(=O)O)c7ccccc67)cc5)cc4)NC3=O)cc2)cc1 [Example 426] ({CH2CO}-[Ala(morpholin-4-yl)][Bip(4'-CONHMe)][Bip(4'-NH)](Indazole3carbonyl(1-CH2COOH))[Sar]PD[dArg(ω-Bn(3-CH2OH))]VPVRLCG-NH2; thioether N-13),< 0.05
3,CC(C)C[C@@H]1NC(=O)[C@H](CCCNC(=N)N)NC(=O)[C@H](C(C)C)NC(=O)[C@@H]2CCCN2C(=O)[C@H](C(C)C)NC(=O)[C@@H](CCCNC(=N)NCc2ccc(NS(C)(=O)=O)cc2)NC(=O)[C@H](CC(=O)O)NC(=O)[C@@H]2CCCN2C(=O)CN(C)C(=O)[C@H](Cc2ccc(-c3ccc(NC(=O)c4nn(CC(=O)O)c5ccccc45)cc3)cc2)NC(=O)[C@H](Cc2ccc(-c3ccccc3)cc2)NC(=O)[C@H](CN2CCOCC2)NC(=O)CSC[C@@H](C(=O)NCC(N)=O)NC1=O [Example 427] ({CH2CO}-[Ala(morpholin-4-yl)][Bip][Bip(4'-NH)](Indazole3carbonyl(1-CH2COOH))[Sar]PD[X45]VPVRLCG-NH2; thioether N-13),0.05 to 0.2
4,CC(C)C[C@@H]1NC(=O)[C@H](CCCNC(=N)N)NC(=O)[C@H](C(C)C)NC(=O)[C@@H]2CCCN2C(=O)[C@H](C(C)C)NC(=O)[C@@H](CCCNC(=N)NCCc2ccc(C#N)cc2)NC(=O)[C@H](CC(=O)O)NC(=O)[C@@H]2CCCN2C(=O)CN(C)C(=O)[C@H](Cc2ccc(-c3ccc(NC(=O)c4nn(CC(=O)O)c5ccccc45)cc3)cc2)NC(=O)[C@H](Cc2ccc(-c3ccccc3)cc2)NC(=O)[C@H](CN2CCOCC2)NC(=O)CSC[C@@H](C(=O)NCC(N)=O)NC1=O [Example 428] ({CH2CO}-[Ala(morpholin-4-yl)][Bip][Bip(4'-NH)](Indazole3carbonyl(1-CH2COOH))[Sar]PD[X30]VPVRLCG-NH2; thioether N-13),0.05 to 0.2
5,CC(C)C[C@@H]1NC(=O)[C@H](CCCNC(=N)N)NC(=O)[C@H](C(C)C)NC(=O)[C@@H]2CCCN2C(=O)[C@H](C(C)C)NC(=O)[C@@H](CCCNC(=N)NCCc2ccc(CN)cc2)NC(=O)[C@H](CC(=O)O)NC(=O)[C@@H]2CCCN2C(=O)CN(C)C(=O)[C@H](Cc2ccc(-c3ccc(NC(=O)c4nn(CC(=O)O)c5ccccc45)cc3)cc2)NC(=O)[C@H](Cc2ccc(-c3ccccc3)cc2)NC(=O)[C@H](CN2CCOCC2)NC(=O)CSC[C@@H](C(=O)NCC(N)=O)NC1=O [Example 429] ({CH2CO}-[Ala(morpholin-4-yl)][Bip][Bip(4'-NH)](Indazole3carbonyl(1-CH2COOH))[Sar]PD[X8]VPVRLCG-NH2; thioether N-13),0.2 to 2
6,CNC(=O)c1ccc(-c2ccc(C[C@@H]3NC(=O)[C@H](CN4CCOCC4)NC(=O)CSC[C@@H](C(=O)NCC(N)=O)NC(=O)[C@H](CC(C)C)NC(=O)[C@H](CCCNC(=N)N)NC(=O)[C@H](C(C)C)NC(=O)[C@@H]4CCCN4C(=O)[C@H](C(C)C)NC(=O)[C@@H](CCCNC(=N)NCCc4ccc(C#N)cc4)NC(=O)[C@H](CC(=O)O)NC(=O)[C@@H]4CCCN4C(=O)CN(C)C(=O)[C@H](Cc4ccc(-c5ccc(NC(=O)c6nn(CC(=O)O)c7ccccc67)cc5)cc4)NC3=O)cc2)cc1 [Example 430] ({CH2CO}-[Ala(morpholin-4-yl)][Bip(4'-CONHMe)][Bip(4'-NH)](Indazole3carbonyl(1-CH2COOH))[Sar]PD[X30]VPVRLCG-NH2; thioether N-13),< 0.05
7,CNC(=O)c1ccc(-c2ccc(C[C@@H]3NC(=O)[C@H](CN4CCOCC4)NC(=O)CSC[C@@H](C(=O)NCC(N)=O)NC(=O)[C@H](CC(C)C)NC(=O)[C@H](CCCNC(=N)N)NC(=O)[C@H](C(C)C)NC(=O)[C@@H]4CCCN4C(=O)[C@H](C(C)C)NC(=O)[C@@H](CCCNC(=N)NCCc4ccc(CN)cc4)NC(=O)[C@H](CC(=O)O)NC(=O)[C@@H]4CCCN4C(=O)CN(C)C(=O)[C@H](Cc4ccc(-c5ccc(NC(=O)c6nn(CC(=O)O)c7ccccc67)cc5)cc4)NC3=O)cc2)cc1 [Example 431] ({CH2CO}-[Ala(morpholin-4-yl)][Bip(4'-CONHMe)][Bip(4'-NH)](Indazole3carbonyl(1-CH2COOH))[Sar]PD[X8]VPVRLCG-NH2; thioether N-13),0.05 to 0.2
